Source: US8501792B2, “Treating cancer with desthiazolyl ritonavir” (priority 2008, dated 2013)
Where two headings read alike, the source gives them in different places.

Key:
SKBR3 (ER-/Her2+) [1] = test: Annexin V-FITC/PI apoptosis flow cytometry, SKBR3; format: cell-based
Protocol: Induction of apoptosis was studied in a MCF7 breast cancer cell line. Apoptotic cells were detected using an Annexin V-FITC/PI apoptosis detection kit (Oncagene, Boston, Mass.). After plating at 5×10^5 in a 100-mm plate, the cells were grown for 48 hours in complete medium in presence of M1, ritonavir, or vehicle (DMSO). The culture and drug exposure conditions for the apoptosis assays were done across a range of 5 to 60 μmol/L M1 and ritonavir. Cells were harvested by trypsin treatment, washed with complete medium to neutralize the trypsin, and stained with PI and Annexin V-FITC. A total of 1×10^4 events were analyzed per assay by FACScan analysis using CellQuest software (Becton Dickinson). Replicate assays were done to confirm the results.
A similar study was performed using T47D (ER+), MDA-MB-231 (triple negative) and SKBR3 (ER−/Her2+) cell lines were performed as above.

T47D cell line = test: Induction of reactive oxygen species, flow cytometry; format: cell-based; details: 30 μM, 24 hours, FIG. 3
Protocol: Production of ROS can be analyzed using flow cytometry. For example, induction of ROS, including peroxide and superoxide, can be studied in cancer cell line. Cells can be seeded in 6 well plates (˜80,000 cells/well) using the appropriate medium, and exposed to a drug for 24 hours. Subsequently, the medium can be removed from the wells and the cells can then be exposed to DHE (2 μM in PBS) or Carboxy-H2-DCFDA (10 μM in PBS) for 30 minutes. Cells can then be trypsinized, washed two times with PBS and analyzed by flow cytometry. Additional cells can be exposed to H2O2 (250 μM) for 2 hours as a positive control for ROS production. See Example 3.
Induction of Reactive Oxygen Species (ROS), including peroxide and superoxide, were studied in the T47D cell line. Cells were seeded in 6 well plates (˜80,000 cells/well) using the appropriate medium, (DMEM with 10% FBS, 1% L-Glu, 1% Sodium Piruvate, and 1% Pen-strep) and exposed to ritonavir (30 μM) and M1 (30 μM) for 24 hours. Subsequently, the medium was removed from the wells and the cells were exposed to DHE (2 μM in PBS) or Carboxy-H2-DCFDA (10 μM in PBS) for 30 minutes. Cells were then trypsinized, washed two times with PBS and analyzed by flow cytometry. Additional cells were exposed to H2O2 (250 μM) for 2 hours as a positive control for ROS production.

[2] = Tolerability in nude mice (MTD, weight); format: in vivo; details: for MTD: female, nude (nu-/nu-), mouse, in vivo
Protocol: Six-8 weeks old female nude mice (nu^−/nu^−) (Charles River Laboratories International, Inc., MA) were injected into a right mammary fat pad with 1×10^6 log-phase MDA-MB-231. Mice were monitored bi-weekly for weight and tumor growth. When tumors reached a volume of approximately 30-40 mm^3 (calculated according to the formula: volume (mm^3)=(length)(width)^2/2), mice were randomized into three groups (each group n=10). One group of mice was injected daily i.p. with ritonavir (20 mg/Kg in 100 μl of ethanol-Tween 80), the second with M1 (20 mg/Kg in 100 μl of ethanol-Tween 80), and the third with vehicle only (100 μl of ethanol-Tween 80). […] Mice were weighted and their tumors were measured twice a week for the entire duration of the treatment (42 days).

T47D (ER+ line) = test: Western blot densitometry, T47D (Example 17); format: cell-based; design: % Reduction, Total Akt / % Reduction, Phospho Akt / % Reduction, ER-α: concentration or dose not given beside the values; details: 24 or 48 hours
Protocol: An ER^+ line, T47D, was treated with M1 or ritonavir for 24 or 48 hours. The cells were grown to confluence and treated with drug or DMSO vehicle. The cells were scraped on ice into RIPA buffer containing protease inhibitors including MG-132 and phosphatase inhibitors as published (see Srirangam et al. Clincal Ca Research 2006). The RIPA lysate was subjected to electrophoresis, blotted and probed with the appropriate antibodies.

SKBR3 (ER-/Her2+) [3] = test: MTT proliferation assay, SKBR3; format: cell-based; details: Homo sapiens, SK-BR-3, Example 6, MTT after 48 h
Protocol: M1 inhibition of proliferation of MCF7 (ER+), T47D (ER+), MDA-MB-231 (triple negative), SKBR3 (ER−/Her2+), and the non-transformed mammary line MCF10A were studied. Cells (n=2000/well) were seeded in 96 well plates with drug or vehicle (DMSO) on D1 and after 48 h the cell number was determined by MTT assay.

MCF7-her2 line = test: MTT proliferation assay, MCF7-her2 line; format: cell-based; details: MCF7-her2 line over-expressing her2; MTT after 48 h
HER2 = test: Surface HER2 flow cytometry in SKBR3 cells; format: cell-based
Protocol: SKBR3 cells were plated at a density of 80,000 cells/well in 6-well plates. After 18 hours, cells were exposed to ritonavir (33 μM), Desthiazolyl Ritonavir (M1) (33 μM), or DMSO. After 24 hours, cells were trypsinized, spun down, and resuspended in 50 μL of Staining Buffer (PBS 1% BSA). Cells were then incubated with anti-HER2 Ab FITC (Chemicon International; MAB4083F) for 30 minutes (on-ice and in the dark). Control cells were incubated with mouse IgG1 FITC (Biolytex). Cells were washed two times with Washing Buffer (PBS 0.1% Tween-20), resuspended in 100 μL of PBS, and acquired using FACSCalibur flow cytometer.

Purified mammalian Hsp90 = test: Hsp90 binding on CM-5 BIAcore chip (surface plasmon resonance); details: RU value versus drug concentration; FIG. 11
Text: Inhibition of Hsp90 can be evaluated by surface plasmon resonance studies of a compound of formula I, using a CM-5 Biacore chip on which Hsp90 (Stressgen, Ann Arbor) has been immobilized. This method can also be used to evaluate the chaperoning activity of a compound of formula I by evaluation of luciferase refolding. See Examples 4 and 9.
Purified mammalian Hsp90 was attached to a CM-5 BIAcore chip through an NHS ester linkage. After attachment of the Hsp90 and blocking the chip with BSA, M1 drug or a 17-AAG control was circulated through a microfluidic circuit and change in refractive index was measured by quantification of the RU value for each drug concentration. In the case of the 17-AAG control the binding was saturable and based on the kon and koff measurements, the KD was estimated to be in the 1 microM range. […] This means that there are significant differences in the binding of M-1 and may indicate alteration of the Hsp90 structure.

HIV = details: MT-4 cell based assay; Denissen et al. 1997; cited from earlier work

SMILES	fraction of apoptotic cells (SKBR3 (ER-/Her2+) [1])	ROS production (T47D cell line)	Animal weight loss ([2]; 20 mg/Kg daily i.p., 42 days, FIG. 5C)	MTD ([2]; nude mice, read-out: maximum tolerated dose (MTD))	% Reduction, CDK2 (T47D (ER+ line))	% Reduction, CDK4 (T47D (ER+ line))	% Reduction, CDK6 (T47D (ER+ line))	% Reduction, Cyclin D1 (T47D (ER+ line))	% Reduction, ER-α (T47D (ER+ line))	% Reduction, Hsp90 (T47D (ER+ line))	% Reduction, Phospho Akt (T47D (ER+ line))	% Reduction, Total Akt (T47D (ER+ line))	IC50 (SKBR3 (ER-/Her2+) [3])	IC50 (MCF7-her2 line)	MTD [2]	anti-HER2 functionality / expression of surface HER2 (HER2; SKBR3, 33 μM, 24 hours, FIG. 7)	reduction of the expression of surface HER2 (HER2; SKBR3 line, P<0.05)	binding to Hsp90, saturability (Purified mammalian Hsp90)	inhibition of HIV replication (HIV)
CC(C)c1nc(CN(C)C(=O)N[C@H](C(=O)N[C@@H](Cc2ccccc2)C[C@H](O)[C@H](Cc2ccccc2)NC(=O)OCc2cncs2)C(C)C)cs1 [ritonavir]	11%	does not	did not occur	40 mg/kg	49.91%	23.99%	11.64%	42.87%	33.24%	48.3%	9.98%	5.04%	33 µM	25 µM	–	–	–	–	–
CC(C)c1nc(CN(C)C(=O)NC(C(=O)NC(Cc2ccccc2)CC(O)C(N)Cc2ccccc2)C(C)C)cs1 (stereo not shown) [M1, desthiazolyl ritonavir]	78%	induces ROS production	–	–	51.02%	2.23%	21.05%	45.64%	56.41%	82.70%	56.36%	56.57%	12 µM	25 µM	20 mg/kg	exhibited anti-HER2 functionality	up to 80%	the binding is not saturable	does not inhibit HIV replication
